Usually Km stands for the substrate concentration at which the rate is half of its maximum.

Where two headings read alike, the source gives them in different places.

For data set [1] the following is noted: 45 mg/kg, 72 hours; cited from earlier work.
Data set [2] has as its system sheep liver glutathione-S-arene oxide transferase. The experiment in a line: Km's for conjugation of GSH and naphthalene oxide, partially purified transferase. Format: in vitro ADME. Conditions: one-half of value for racemic naphthalene oxide, pH 7.4, read-out: Km for 1R, 2S-- or 1S, 2R-- NO (conjugation with GSH). From the text:
(§1) The rate of reaction of naphthalene oxide with GSH is assumed to be of the form V=Vmax*{1GSH/(GSH+Kml)}*{NO/(NO+Km2)}. […] Work with partially purified sheep liver glutathione-S-arene oxide transferase has provided Km's for conjugation of GSH and racemic naphthalene oxide at pH 7.4 (Hayakawa, T., LeMahieu, R. A., and Udenfriend, S., "Studies on Glutathione-S-arene Oxide Transferase--a Sensitive Assay", Arch. Biochem. Biophys. 162: 223-230 (1974), which is hereby incorporated by reference). Individual glutathione-S-transferase isozymes are enantioselective with respect to naphthalene oxide (O'Brien, K. A. F., Suverkropp, C., Kanekal, S., Plopper, C. G., and Buckpitt, A. R., "Tolerance to Multiple Doses of the Pulmonary Toxicant, Naphthalene", Toxicol. Appl. Pharmacol. 99: 487-500 (1989), which is hereby incorporated by reference), but GSH conjugation proceeds equally fast with 1R, 2S- and 1S, 2R-naphthalene oxide (Buonarati, M., Jones, A. D., and Buckpitt, A., "In vivo Metabolism of Isomeric Naphthalene Oxide Glutathione Conjugates", Drug Metab. Dispos. 18: 183-189 (1990), which is hereby incorporated by reference). Therefore Vmax's for conjugation with each enantiomer are assumed equal, and the Km for reaction with each enantiomer is assumed to be one-half of the value reported for racemic naphthalene oxide.

The subject of the next data set is human lymphocytes. In words: Viability of human lymphocytes after 24 hr BrdU exposure and 30 sec UV light in the multicompartmental cell culture system (trypan blue). Format: cell-based. Conditions: 750 mg BrdU in 500 mL system. The protocol: Approximately 14 mL of freshly drawn human blood were collected into EDTA tubes (Becton Dickinson, Lincoln Park, N.J.). To this blood sample was added 4 mL of Hanks balanced salt solution. Two and one-half mL of the blood solution was layered onto 3 mL of ficoll (Pharmacia, Piscataway, N.J.) and centrifuged at 1500 rpm for 20 min at ambient temperature. The pellet was washed in an equal volume of Hanks balanced salt solution and recentrifuged. All lymphocytes collected from the 14 mL blood sample were seeded into 100 mL of RPMI 1640 (Gibco, Grand Island, N.Y.) and placed in a Forma Scientific water-jacketed incubator (Fisher Scientific, Philadelphia, Pa.) set at 37° C. with 5 percent CO2 overnight.
The multicompartmental cell culture system ("MCCS") of the present invention was used to expose both normal and transformed cells to an antineoplastic compound simultaneously. The volume of distribution of the system was 500 mL. Each compartment (T-flask, Becton Dickinson, Lincoln Park, N.J.) contained 75 mL of cell culture medium (RPMI 1640 as previously described). […]
(§2) Following the 24 hr. exposure period, both human lymphocytes and rat hepatoma cells were exposed to a UV light source for 30 sec. Viable cells were determined and enumerated by trypan blue dye exclusion on a hemacytometer immediately following UV exposure.

A further data set deals with H4IIE cells. The experiment in a line: Viability of H4IIE hepatoma cells after 24 hr BrdU exposure and 30 sec UV light in the multicompartmental cell culture system (trypan blue). The format is cell-based, rat. The method, then:
A rat hepatoma cell line, H4IIE obtained from the American Type Culture Collection (Bethesda, Md.), was cultured in RPMI Medium 1640 with 5 percent fetal calf serum, L-glutamine and antibiotics (penicillin G, streptomycin and amphotericin B) (Gibco Island, N.Y.). Cells were seeded 24 hr before the experiment. Attachment of H4IIE cells occurs several hours following seeding. Density was approximately 20 percent of confluence at the start of the experiment.
The multicompartmental cell culture system ("MCCS") of the present invention was used to expose both normal and transformed cells to an antineoplastic compound simultaneously. The volume of distribution of the system was 500 mL. Each compartment (T-flask, Becton Dickinson, Lincoln Park, N.J.) contained 75 mL of cell culture medium (RPMI 1640 as previously described). The flow rate was set at 5 mL per min. and maintained by means of a peristaltic pump (Millipore, Bedford, Mass.). The entire system was placed inside a Forma Scientific water-jacketed incubator (Fisher Scientific, Philadelphia, Pa.) set at 37° C. with 5 percent CO2. […]
as §2

Data set [3] has as its system sheep liver glutathione-S-arene oxide transferase. Conditions: read-out: Km for GSH, pH 7.4, cited from earlier work.
For data set [4], the system named is lung microsomes and cytosolic protein. The experiment in a line: Conjugation of naphthalene oxide with GSH, mouse lung. Format: in vitro ADME. Conditions: assumed equal for each enantiomer.
Source text: as §1

Data set [5] deals with liver microsomes and cytosolic protein. In words: Conjugation of naphthalene oxide with GSH, mouse liver. Format: in vitro ADME. Conditions: assumed equal for each enantiomer.
Source text: as §1

In data set [6] the test system is lung microsomes. The experiment in a line: Conjugation of naphthalene oxide with GSH, rat lung. Format: in vitro ADME. Also on record: unit not given here. Conditions: assumed equal for each enantiomer. The source says:
(§3) Determination of Vmax's and Km's for naphthalene oxide production and Vmax's for GSH conjugates and dihydrodiol production in rat microsomes were done in the same way as for the mouse. Sources of data were Buckpitt, et al, 1987, supra, Hesse, S. and Mezger, M., "Involvement of Phenolic Metabolites in the Irreversible Protein-binding of Aromatic Hydrocarbons: Reactive Metabolites of [^14 C]-naphthalene and [^14 C] 1-naphthol Formed by Rat Liver Microsomas", Mol. Pharmacol. 16: 667-675 (1979) which is hereby incorporated by reference, O'Brien et al., 1985, supra, van Bladeren et al., 1985, supra, and Yost, G. S., Buckpitt, A. R., Roth, R. A., and McLemore, T. L., "Mechanisms of Lung Injury by Systematically Administered Chemicals", Toxicol. Appl. Pharmacol. 101: 179-195 (1989), which is hereby incorporated by reference.

Data set [7] concerns liver microsomes. The experiment in a line: Conjugation of naphthalene oxide with GSH, rat liver. Format: in vitro ADME. Also on record: unit not given here. Conditions: assumed equal for each enantiomer.
Source text: as §3

The next data set deals with protein. The experiment in a line: Covalent binding of naphthalene oxide to protein in hepatocytes. Format: in vitro ADME. The conditions noted are these: non-enzymatic; from hepatocyte incubations. The protocol: The first order rate constant for non-enzymatic rearrangement of naphthalene oxide to 1-naphthol has been reported (van Bladeran et al., 1985, supra). The rate of covalent binding was determined from data reported for incubations of hepatocytes with naphthalene oxide (Buonarati et al., 1989, supra).

For data set [8] the following is noted: non-enzymatic; cited from earlier work.
The test system of a further data set is liver GSH. The conditions noted are these: 48 hours after xylene; cited from earlier work.
In data set [9] the test system is lung microsomes. Conditions: 48 hours after xylene; cited from earlier work.
In data set [10] the test system is liver microsomes. The conditions noted are these: 48 hours after xylene; cited from earlier work.

As to `Oc1cccc2ccccc12` [1 naphthol, 1-Naphthol], the “percent of dose recovered” value in [1] was “Eighty-one”.
Turning to `C1=C[C@@H]2O[C@@H]2c2ccccc21` [1R, 2S NO, 1R, 2S-naphthalene oxide], the Km in [2] (Mouse) and in [2] (Rat) was 50 µM throughout.
With `C1=C[C@H]2O[C@H]2c2ccccc21` [1S, 2R NO, 1S, 2R-naphthalene oxide], the Km in data set [2] (Mouse) and in [2] (Rat) was 50 µM each time.
On to `O=c1[nH]c(=O)n([C@H]2C[C@H](O)[C@@H](CO)O2)cc1Br` [BrdU, 5-bromo-2'-deoxyuridine], for which the “viable human lymphocytes following UV exposure” value with human lymphocytes is reported as “Eighty-nine”. Further, the “viable H4IIE cells following UV exposure” value in the data set with H4IIE cells (750 mg BrdU in 500 mL system, 30 sec UV) is “fifty-three”. In addition, the “uptake of BrdU by hepatoma cells versus lymphocytes” value in the data set with H4IIE cells (MCCS, inferred from killing) is recorded as “greater uptake of the BrdU by the hepatoma cells than the lymphocytes”.
With `N[C@@H](CCC(=O)N[C@@H](CS)C(=O)NCC(=O)O)C(=O)O` [GSH, glutathione], the Km in data set [3] (Mouse) and in data set [3] (Rat) was 3.3 mM each time.
As for `C1=CC2OC2c2ccccc21` (stereo not shown) [NO, naphthalene oxide], the “Vmax, conjugation with GSH” value came to 22.5 nmol/mg/min in [4], 150 nmol/mg/min in data set [5], 400 with lung microsomes [6] and 500 in the data set on liver microsomes [7]. This compound also returned a Binding to protein in the data set with protein of 0.2 pmole/mg/min/μM NO. In addition, in [8], the “First order rate constant for rearrangement to 1-napthol” value is 0.25 min⁻¹.
For xylene, the GSH levels entry in the data set with liver GSH is “return to normal”. Also, in the data set with lung microsomes [9], the “metabolism of naphthalene by lung microsomes, percent of the normal rate” value is 56%. Moreover, the “metabolism of naphthalene by liver microsomes” value in the data set on liver microsomes [10] is “return to normal”.

The record behind these values is US5612188A, “Automated, multicompartmental cell culture system” (Cornell Research Foundation, Inc., priority 1994, dated 1997).
